Values joined by “and” are separate entries in the source; they are usually repeats but may differ in a detail not shown here. Identical values can stand only once.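 Five compound concentrations were applied to cells in 96-well plates for 48 hours; endpoints were derived by simple linear interpolation of the resulting dose-response curve. GI50 marks 50% less growth. TGI marks complete inhibition of growth.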

Drawing on PubChem BioAssay (NCI), this text covers GI50 and TGI for nine compounds.

Assay in all cases: DTP human tumour cell line panel, 48 h
The subject of assay [1] is NCI/ADR-RES ovarian.
In assay [2] the test system is SNB-19 CNS.
The subject of assay [3] is SK-MEL-28 melanoma.
For assay [4], the system named is PC-3 prostate.
Assay [5] deals with A498 renal.
For assay [6], the system named is SF-295 CNS.
The subject of assay [7] is OVCAR-3 ovarian.
Assay [8] concerns HCC-2998 colon.
The test system of assay [9] is OVCAR-5 ovarian.
Assay [10] deals with MDA-MB-435.

For the compound `COc1ccc(C(O)c2cc3c(N)c(C(=O)Nc4cccc(Br)c4)sc3nc2C)cc1` (centres undefined), the GI50 is 0.104 µM in assay [1]; 0.159 µM in [2]; 22.3 µM in [3]; 0.204 µM in assay [4]; 0.0536 µM in assay [5]; 0.11 µM in assay [6]. For the same compound, the GI50 in assay [7] was 0.0949 µM; in [8] it was 0.121 µM; in [9] it was 0.216 µM; in assay [10] it was 0.0202 µM. Besides, the total growth inhibition concentration (TGI) in [1] was 4.87 µM; in [2], over 100 µM; in [3] it was over 100 µM; in assay [4], over 100 µM; in assay [5], 0.231 µM; in assay [6], over 31.7 µM. Moreover, the concentration for total growth inhibition (TGI) in assay [7] is 0.322 µM; in [8], 15.5 µM; in assay [9] it was over 100 µM; in assay [10] it was 0.05 µM.
On to `Oc1ccccc1-n1c(-c2ccccc2)ccc1-c1ccccc1`, for which the GI50 in assay [1] is 5.13 µM; in [2], 12.7 µM; in assay [3], 10.8 µM; in assay [4] it was 2.95 µM; in [5] it was 7.49 µM; in [6], 6.6 µM. Moreover, the GI50 in assay [7] is 9.54 µM; in assay [8], 11.2 µM; in [9], 15.2 µM; in [10], 2.81 µM. For the same compound, the TGI in [1] came out at 23.1 µM; in assay [2] it was 34.3 µM; in assay [3], 31.6 µM; in assay [4], 15.8 µM; in assay [5], 35.8 µM; in assay [6], 21 µM. For the same compound, the TGI in [7] stood at 21.7 µM; in assay [8], 29.2 µM; in assay [9], 48.7 µM; in [10], 20.9 µM.
Take `CC(C)(C)CC(C)(C)c1ccc(OCCOCCSC(=N)N)cc1`: the GI50 was 2.59 µM in assay [1]; 2.17 µM in assay [2]; 1.72 µM in [3]; 2.37 µM in assay [4]; 1.72 µM in assay [6]; 2.05 µM in assay [7]. Further, the GI50 in assay [8] was 1.25 µM; in [9], 2.4 µM; in assay [10] it was 1.51 µM. Also, the TGI was found to be 6.61 µM in [1]; 5.58 µM in assay [2]; 3.24 µM in assay [3]; 7.25 µM in assay [4]; 3.27 µM in [6]; 4.48 µM in assay [7]. The TGI is 2.56 µM in [8], 6.5 µM in assay [9] and 2.84 µM in [10].
With `CCCC[C@@H](COC(=O)N(Cc1cccs1)Cc1cccs1)NC(=O)N[C@@H](CC(=O)OC)c1ccc2c(c1)OCO2`, the GI50 is over 100 µM in [1]; over 100 µM in assay [3]; 9.09 µM in [4]; over 100 µM in assay [5]; over 100 µM in assay [6]; over 100 µM in assay [7]. The GI50 in [8], in [9] and in assay [10] was over 100 µM each time. For the same compound, the TGI in [1], in assay [3], in assay [4], in assay [5], in assay [6] and in assay [7] was over 100 µM throughout. Moreover, the TGI in assay [8], in [9] and in assay [10] was over 100 µM each time.
In the case of `COc1ccccc1-n1c(SCc2cc(OC)c(OC)c(OC)c2)nc2ccc(Cl)cc2c1=O`, the GI50 in assay [1] is 2.25 µM; in assay [3] it was 5.76 µM; in [4], 2.65 µM; in [5], 1.76 µM; in assay [7], 2.21 µM; in assay [8], 7.8 µM. Besides, the results for the GI50 in [9] and in [10] were 7.47 µM and 0.366 µM, respectively. In addition, the total growth inhibition concentration (TGI) in [1] is over 100 µM; in [3], over 100 µM; in assay [4], over 100 µM; in assay [5], 48.2 µM; in assay [7] it was 15.9 µM; in assay [8], over 100 µM. Besides, the figures for the TGI in [9] and in [10] were over 100 µM and 25.8 µM, respectively.
On to `C=C(C)[C@H]1CC/C(C)=C/CCC(C)C(=O)CC/C(CO)=C\[C@@H]1O` (some centres undefined), for which the GI50 in assay [1] was over 100 µM; in assay [3], 7.9 µM; in assay [4], 76.3 µM; in [5], 68.7 µM; in assay [6], 70 µM; in assay [7] it was over 100 µM. The figures for the GI50 in assay [8], in [9] and in assay [10] were over 100 µM, over 100 µM and 49.2 µM, respectively. In addition, the TGI in [1], in [3], in assay [4], in [5], in assay [6] and in [7] was over 100 µM in each case. Moreover, the TGI in [8], in assay [9] and in assay [10] was over 100 µM each time.
As to `COc1ccc2c(c1)OC13Oc4cc(OC)ccc4C=C1CCCC3=C2`, the GI50 in assay [1], in assay [2], in assay [3], in assay [4], in [5] and in assay [6] was over 100 µM in each case. Moreover, the GI50 in assay [8] was over 100 µM; in assay [9], over 100 µM; in assay [10] it was 5.52 µM. The TGI in assay [1], in assay [2], in assay [3], in assay [4], in [5] and in [6] was over 100 µM each time. For the same compound, the TGI in assay [8], in assay [9] and in assay [10] was over 100 µM throughout.
`O=[N+]([O-])c1ccc2c(N=Nc3c(O)ccc4ccccc34)c(O)cc(S(=O)(=O)O)c2c1`: the GI50 in assay [1] is 40.6 µM; in assay [2], 19.3 µM; in assay [3] it was 32.5 µM; in assay [4] it was 34.5 µM; in assay [6], 29.5 µM; in assay [7], 9.36 µM. Also, the GI50 in assay [9] was 70.3 µM; in assay [10] it was 47.5 µM. In addition, the TGI in assay [1] is 33.4 µM and > 100 µM; in assay [2], 50 µM and > 100 µM; in [3] it was 50 µM and > 100 µM; in assay [4], 50 µM and > 100 µM; in assay [6] it was 50 µM and > 100 µM; in assay [7] it was 50 µM and > 100 µM. The total growth inhibition concentration (TGI) is over 100 µM in assay [8]; 50 µM and > 100 µM in assay [9]; 50 µM and > 100 µM in assay [10].
Take `CCNCC(O)c1ccc(N)c([N+](=O)[O-])c1` (centres undefined): the TGI in [1], in [2], in assay [3], in [4], in [5] and in assay [6] was over 100 µM throughout. The TGI in assay [7], in assay [9] and in assay [10] was over 100 µM throughout.

In general, GI50 refers to the concentration at which growth is held to half of that of the control. One may read the TGI as the concentration giving total growth inhibition. A lower TGI goes with greater sensitivity of the cells.
